Assay results published in patent US20210338558A1, “USE OF COLLAGEN BINDING DOMAINS TO DELIVER PRODUCTS TO SKIN” (Fabius Biotechnology, priority 2018, published 2021).
One block for each substance: values may come before it. Where no end group is shown, it is not given here.

Tests used:
[1] = biological activity of the covalently linked growth factors; details: growth factor linked at its C-terminus to decapeptide WREPSFMALS
Description: (§1) Studies with targeted peptides used the decapeptide sequence: Trp-Arg-Glu-Pro-Ser-Phe-Met-Ala-Leu-Ser (WREPSFMALS) (SEQ ID NO: 1). It was linked to either TGF-β or BMP-3 at the C-terminus of the corresponding growth factors.

native collagen = test: binding of growth factors carrying the collagen binding decapeptide to collagen
Description: as §1
Polypeptide growth factors, of the TGF-β family, and others, were constructed to contain, at the C-terminal end, a decapeptide with high affinity for collagen (Andrades, Nimni et al. 1996; Tuan, Cheung et al. 1996; Andrades, Han et al. 1999; Hall, Han et al. 2001; Han, Perelman et al. 2002; Romijn, Westein et al. 2003). This was intended to provide concentration of the growth factors where needed for maximum efficacy. In compositions and methods according to the present invention, this effect can be used for delivery of the skin care agent or cosmeceutical to the skin.
This is compared to the behavior of TGF-β without the collagen binding domain, which has poor affinity for collagen.

collagen = details: by binding competition, on a molar basis, relative to intact VWF; cited from earlier work

binding affinity towards native collagen (native collagen; growth factor linked at its C-terminus to decapeptide WREPSFMALS): strong binding affinity
Substance: TGF-β with a collagen binding domain: TGF-β linked at the C-terminus to the decapeptide WREPSFMALS; genetically engineered fusion protein (FIG. 3)
biological activities retained after linkage [1]: retained significant biological activities
dissociation of binding to collagen (native collagen; FIG. 4, urea): requires a high concentration of urea for dissociation

affinity for collagen (native collagen; FIG. 4): poor affinity
Substance: TGF-β without the collagen binding domain: TGF-β lacking the collagen binding domain, comparator in FIG. 4 [reference compound]

Substance: WREPSFCALS [SEQ ID NO: 2]
binds more efficiently to collagen than the intact VWF (collagen): 20 times

Substance: WREPSFMALS [SEQ ID NO: 1]
binds more efficiently to collagen than the intact VWF (collagen): 20 times
